Data reported in patent publication US11413267B2, “Methods and compositions for inhibition of ATR and FANCD2 activation” (priority 2012, dated 2022).
Marks after values point to notes of the source that are not given here.

Test system: CHO cells
Assay: In vitro chromosome aberration test
Format: cell-based, Chinese Hamster
Settings: for Average aberrant metaphases (%) / Chromatid break (No.) / Chromatid deletion / Complex rerrangement / Dicentric / Polyploid / Pulverized cell / Quadriradial / Ring / Triradial: Chinese hamster, 20 h
Procedure: To test this hypothesis, we investigated the cytogenetic effect of Protoapigenone (I-1) on CHO cells (FIG. 1).
In brief, 5×10^5 Chinese Hamster Ovary (CHO) cells were seeded in 60-mm dishes 1 d before the experiment. Protoapigenone (I-1)-induced structural chromosomal changes after 20 h were compared with that of the cells cultured in 2 μM mitomycin C. At 18 h after Protoapigenone (I-1), 0.1 μg/mL colchicine was added for 2 h, and metaphase cells were collected by shaking them off the dishes. Mitotic cells were treated with 0.5% KCl for 10 min and fixed with a 3:1 mixture of methanol: glacial acetic acid. The cells were then spread on slides for chromosome staining with 5% Giemsa solution. We then analyzed the chromosome structure of 200 well-spread metaphase cells (100 metaphase cells/experiment) under a 100× oil immersion objective.

`O=C1C=CC(O)(c2cc(=O)c3c(O)cc(O)cc3o2)C=C1` [Compound I-1, Protoapigenone] was tested, and the “Chromosomal structural changes (breakages, radials, polyploidy), in words” value was “dose-dependent increases”, the “Obtaining complete mitotic chromosome” value was “complete mitotic chromosome could not be obtained” and the “Average aberrant metaphases (%)” value (2.17 μM) was 6.5 * %. For the same molecule, the “Chromatid break (No.)” value (2.17 μM) was 2 No, the Chromatid deletion (2.17 μM) was 0 No and the Complex rerrangement (2.17 μM) was 0 No. For the same molecule, the Dicentric (2.17 μM) was 0 No, the Polyploid (2.17 μM) was 3 No and the Pulverized cell (2.17 μM) was 0 No. For the same molecule, the Quadriradial (2.17 μM) was 3 No, the Ring (2.17 μM) was 1 No and the Triradial (2.17 μM) was 4 No. For the same molecule, the “Average aberrant metaphases (%)” value (4.35 μM) was 14.0 * %, the “Chromatid break (No.)” value (4.35 μM) was 1 No and the Chromatid deletion (4.35 μM) was 1 No. For the same molecule, the Complex rerrangement (4.35 μM) was 0 No, the Dicentric (4.35 μM) was 0 No and the Polyploid (4.35 μM) was 1 No. For the same molecule, the Pulverized cell (4.35 μM) was 1 No, the Quadriradial (4.35 μM) was 9 No and the Ring (4.35 μM) was 2 No. For the same molecule, the Triradial (4.35 μM) was 13 No.
